Test results reported in patent publication US20040002441A1, “Recombination modulators and methods for producing and using the same” (priority 2000, published 2004).
Values joined by “and” are separate entries in the source; they are usually repeats but may differ in a detail not shown here. Equal entries are not always repeated. “Also recorded” adds a separate entry of the source. Where no end group is shown, it is not given here.

Assays:
[1] = target: T1, bacteriophage P1 Cre protein (Escherichia phage P1, UniProt P06956); assay: Cre-mediated recombination between two lox site substrates; format: biochemical
T1 sequence (P06956 1-343): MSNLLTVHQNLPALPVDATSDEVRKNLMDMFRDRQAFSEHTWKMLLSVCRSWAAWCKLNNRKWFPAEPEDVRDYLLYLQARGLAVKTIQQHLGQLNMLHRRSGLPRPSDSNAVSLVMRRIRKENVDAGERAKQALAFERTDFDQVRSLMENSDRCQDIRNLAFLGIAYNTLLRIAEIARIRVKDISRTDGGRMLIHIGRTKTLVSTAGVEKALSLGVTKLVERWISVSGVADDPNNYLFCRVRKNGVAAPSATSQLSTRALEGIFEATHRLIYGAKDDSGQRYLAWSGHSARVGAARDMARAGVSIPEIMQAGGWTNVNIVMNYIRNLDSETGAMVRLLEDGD
Description: In order to test the specificity of peptide inhibition, we determined whether peptide KWWCRW affects the activity of a relative of the Int recombinase, namely the bacteriophage P1 Cre protein. Indeed, the peptide inhibits Cre-mediated recombination between two lox site substrates (Cassell and Segall, unpublished results).

[2] = target: T2, E. coli topoisomerase I (type Ia) (Escherichia coli, UniProt P06612); assay: biochemical; details: for IC50: IC50, DNA relaxation (activity reduced by one-half), supercoiled DNA
T2 sequence (P06612 1-865): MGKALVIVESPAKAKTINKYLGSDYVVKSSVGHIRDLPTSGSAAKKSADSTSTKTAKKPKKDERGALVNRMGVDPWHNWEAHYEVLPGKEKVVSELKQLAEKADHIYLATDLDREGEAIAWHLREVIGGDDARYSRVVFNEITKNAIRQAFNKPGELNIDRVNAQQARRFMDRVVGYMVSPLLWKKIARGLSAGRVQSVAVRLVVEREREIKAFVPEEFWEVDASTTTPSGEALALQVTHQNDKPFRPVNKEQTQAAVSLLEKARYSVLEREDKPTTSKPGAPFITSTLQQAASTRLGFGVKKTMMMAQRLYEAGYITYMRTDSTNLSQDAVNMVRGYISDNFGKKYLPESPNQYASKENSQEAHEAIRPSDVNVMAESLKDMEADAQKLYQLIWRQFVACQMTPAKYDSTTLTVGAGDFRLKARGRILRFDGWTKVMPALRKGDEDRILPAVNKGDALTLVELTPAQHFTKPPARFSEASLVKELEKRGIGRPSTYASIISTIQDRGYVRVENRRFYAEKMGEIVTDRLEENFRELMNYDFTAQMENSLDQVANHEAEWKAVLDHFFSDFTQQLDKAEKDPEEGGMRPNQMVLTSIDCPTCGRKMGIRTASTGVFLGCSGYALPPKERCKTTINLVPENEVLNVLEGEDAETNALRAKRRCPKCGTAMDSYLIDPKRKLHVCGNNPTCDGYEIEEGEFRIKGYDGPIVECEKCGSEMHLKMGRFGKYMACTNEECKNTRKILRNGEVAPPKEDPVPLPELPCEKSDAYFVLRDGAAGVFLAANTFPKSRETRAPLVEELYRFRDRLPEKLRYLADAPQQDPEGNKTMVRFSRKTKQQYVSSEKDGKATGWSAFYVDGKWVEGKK
Description: E. coli topoisomerase I (TopA) exemplifies the type IA topoisomerase family. Type IA enzymes are mechanistically and structurally unrelated to the topoisomerase IB/tyrosine recombinase superfamily of DNA strand transferases.

[3] = target: T3, Vaccinia topoisomerase (type Ib) (Vaccinia virus, UniProt P68698); assay: biochemical; format: biochemical; details: for IC50: IC50 for DNA cleavage (covalent adduct formation)
T3 construct: made in house; host or cells: Escherichia coli BL21 infected with bacteriophage λCE6

double-stranded DNA = assay: Peptide binding to DNA (electrophoretic mobility shift)
Description: Do peptides KWWCRW and KWWWRW inhibit recombination by interfering with the formation of higher order complexes? The formation of intermediates in the bent-L pathway depends on Int contacting two different types of sites, the higher affinity arm sites and the lower affinity core sites flanking the loci of DNA cleavage and strand exchange (FIG. 9). […] To determine the effect of KWWCRW on interactions of Int with its core binding sites, we assembled the recombination complexes, known as intasomes or unimolecular complexes (UMC), on an attL variant substrate with 4 mutations in the IHF binding site, collectively known as QH′. These mutations prevent the specific binding of IHF to the QH′ sequence (Gardner and Nash, 1986), but still allow IHF to bind and bend DNA nonspecifically (Segall et al., 1994). […] We next tested the assembly of bent-L pathway intermediates. At 10 μM peptide, all of the labeled DNA was shifted into the well. However, at lower peptide concentrations that still inhibited recombination (0.1-1 μM), intermediates were assembled normally. In fact, one of the intermediates, the bimolecular complex (BMC), accumulates substantially in the presence of the peptide (see also FIG. 12). […] This agrees perfectly with our observations that suboptimal concentrations of peptide lead to accumulation of Holliday junctions (FIG. 10). […] The peptide shifts att site DNA even in the complete absence of Int (data not shown), confirming that KWWCRW interacts with DNA in a concentration-dependent fashion and in a manner that affects the mobility of the DNA much more drastically than expected for the size of the peptides.
Int Assays. Site-specific recombination and gel mobility shift assays were performed as described (Segall, 1998). Briefly, reactions were performed in a total volume of 10 or 20 μl and typically contained 1-2 nM radiolabeled att site as specified, 4 nM unlabeled att site, 100-300 ng salmon sperm DNA as nonspecific competitor, 44 mM Tris-Ci (pH 8.0), 60 mM KCl, 0.05 mg/ml bovine serum albumin, 7 mM Tris borate (pH 8.9), 5 mM spermidine, 1.3 mM EDTA, and 14.6% v/v glycerol. Any deviation from this formulation is noted in the figure legends. Gel shift reactions were incubated for 90 minutes at 37° C., layered without loading dyes onto 5% native polyacrylamide gel (29 acrylamide: 1 bis-acrylamide) and electrophoresed in 0.5× Tris borate EDTA buffer. Recombination reactions were stopped with 0.2× volume of 2% SDS, layered onto 5% polyacrylamide Tris/SDS gels, and electrophoresed in 1× Tris Tricine SDS buffer at 100 mA (Segall, 1998). Dried gels were visualized and quantitated using a Molecular Dynamics PhosphorImager.

Substance	accumulation of Holliday junctions in Cre-mediated recombination [1]	effect on DNA relaxation ([2]; peptide concentrations up to 42 μM)	effect on transesterification (DNA cleavage) [3]	binding to DNA (double-stranded DNA)	effect on Cre-mediated recombination [1]	IC50 [2]	effect on rate of transesterification [3]	inhibition of covalent adduct formation [3]	IC50 [3]	reduction of covalent adduct formation [3]	inhibition at 0.7 µM ([3]; read-out: inhibition of cleavage)	peptide concentration that shifts the mobility of double-stranded DNA (double-stranded DNA; reactions with at least 50 ng salmon sperm DNA)
WKHYNY-NH2 [Peptide 52, WKHYNY]	does cause accumulation of Holliday junctions	no effect	did not inhibit transesterification; also recorded: do not inhibit cleavage	do not bind double-stranded DNA	–	–	–	–	–	–	–	–
KWWWRW-NH2 [Peptide 56, KWWWRW]	–	–	–	appear to bind to DNA	inhibit	7000 to 10000 nM	slowed the rate of transesterification	99%	~500 nM	–	–	–
KWWCRW-NH2 [Peptide 59, KWWCRW]	–	–	–	appear to bind to DNA; also recorded: binds double stranded DNA by itself	inhibit	8000 nM	slowed the rate of transesterification	99%	~500 nM and 500 nM	90%	40%	≥ 5 µM
